Here are results for 6 compounds from patent US12227488B2, “Small molecule degraders of Helios and methods of use” (DANA-FARBER CANCER INSTITUTE, INC., priority 2018, dated 2025).

Each structure is given as a SMILES string.

Experiment [1] has as its target T1, IKZF1 (Homo sapiens, UniProt Q13422).
T1 construct: expressed in transfected cells; host or cells: Flp-In 293
The experiment in a line: Cellular degradation assay, eGFP-IKZF1Δ fusion with mCherry reporter in Flp-In 293 cells. The format is cell-based. The following applies: 5 h incubation, n=1. Summed up:
(§1)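 Flp-In 293 cells stably expressing eGFP-tagged degron fusions with P2A-mCherry reporter were treated with compound titrations (0.5% DMSO) for 5 hours. Imaging quantified GFP-positive/mCherry-positive cell fraction per well; DC50 at 5 h from nonlinear variable-slope fit.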

Experiment [2] has as its system IKZF2. As to the kind of experiment: Cellular degradation assay, eGFP-IKZF2Δ fusion with mCherry reporter in Flp-In 293 cells. The conditions noted are these: 5 h incubation, n=1. In kind it is cell-based. Summed up:
as §1

Experiment [3] deals with T2, SALL4 ZNF1-2 (Homo sapiens, UniProt Q96SW2+Q9UJQ4).
T2 construct: IKZF1Δ, IKZF2Δ, GSPT1 and SALL4 ZnF1-2 were subcloned; expressed in transfected cells; host or cells: Flp-In 293
The experiment in a line: Cellular degradation assay, eGFP-SALL4 ZnF1-2 fusion with mCherry reporter in Flp-In 293 cells. The following applies: 5 h incubation, n=1. The format is cell-based. Summed up:
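Flp-In 293 cells stably expressing eGFP-SALL4 ZnF1-2 fusion plus mCherry reporter were treated with compound titrations (0.5% DMSO) for 5 hours. Imaging at 488/561 nm gave, per well, the fraction of GFP-positive among mCherry-positive cells.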

The target in experiment [4] is T3, CRBN and Helios (IKZF2) (Homo sapiens, UniProt Q96SW2+Q9UKS7).
T3 construct: His (N); Strep (N)
The experiment in a line: TR-FRET dimerization assay (CRBN-IKZF2 ternary complex formation). In kind it is binding. The conditions noted are these: n=1. Summed up:
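BODIPY-labeled DDB1ΔB-CRBN and in vitro biotinylated IKZF2 were treated with increasing compound concentrations plus tracer Terbium-Streptavidin and incubated 15 min at rt. Recruitment was quantified as the 520/490 nm TR-FRET ratio; values are single measurements (n=1), each averaged from at least three technical replicates.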

Experiment [5] has as its target GSPT1 (Homo sapiens, UniProt P15170+Q96SW2). The experiment in a line: Cellular degradation assay, eGFP-GSPT1 fusion with mCherry reporter in Flp-In 293 cells. The conditions noted are these: 5 h incubation, n=1. Set-up: expressed in transfected cells; host or cells: Flp-In 293. The format is cell-based. Summed up: as §1
[6] abbreviates: compound concentration 2.00E−05.
Setting [7] is: compound concentration 2.00E−06.
The mark [8] stands for this setting: compound concentration 2.00E−07.
The mark [9] stands for this setting: compound concentration 6.6667E−05.
The mark [10] stands for this setting: compound concentration 6.6667E−06.
The mark [11] stands for this setting: compound concentration 6.6667E−07 (667 nM).

T2 sequence (Q9UJQ4 378-438 limits assumed): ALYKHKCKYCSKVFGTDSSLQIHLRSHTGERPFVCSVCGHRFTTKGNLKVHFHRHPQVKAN
T2 sequence (Q96SW2 whole entry): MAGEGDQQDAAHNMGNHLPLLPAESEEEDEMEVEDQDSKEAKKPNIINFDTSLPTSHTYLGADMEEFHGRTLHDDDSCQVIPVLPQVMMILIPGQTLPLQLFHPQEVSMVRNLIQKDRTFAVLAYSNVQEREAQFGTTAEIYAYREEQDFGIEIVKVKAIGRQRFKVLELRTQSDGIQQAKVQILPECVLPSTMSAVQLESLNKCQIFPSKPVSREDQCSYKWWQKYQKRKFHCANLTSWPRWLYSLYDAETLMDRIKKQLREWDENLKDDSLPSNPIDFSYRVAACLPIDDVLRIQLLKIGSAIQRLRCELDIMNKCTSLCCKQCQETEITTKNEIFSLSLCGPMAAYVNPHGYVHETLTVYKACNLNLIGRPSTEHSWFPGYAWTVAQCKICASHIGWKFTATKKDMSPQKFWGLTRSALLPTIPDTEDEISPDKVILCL
T2 sequence (Q16531 whole entry partner): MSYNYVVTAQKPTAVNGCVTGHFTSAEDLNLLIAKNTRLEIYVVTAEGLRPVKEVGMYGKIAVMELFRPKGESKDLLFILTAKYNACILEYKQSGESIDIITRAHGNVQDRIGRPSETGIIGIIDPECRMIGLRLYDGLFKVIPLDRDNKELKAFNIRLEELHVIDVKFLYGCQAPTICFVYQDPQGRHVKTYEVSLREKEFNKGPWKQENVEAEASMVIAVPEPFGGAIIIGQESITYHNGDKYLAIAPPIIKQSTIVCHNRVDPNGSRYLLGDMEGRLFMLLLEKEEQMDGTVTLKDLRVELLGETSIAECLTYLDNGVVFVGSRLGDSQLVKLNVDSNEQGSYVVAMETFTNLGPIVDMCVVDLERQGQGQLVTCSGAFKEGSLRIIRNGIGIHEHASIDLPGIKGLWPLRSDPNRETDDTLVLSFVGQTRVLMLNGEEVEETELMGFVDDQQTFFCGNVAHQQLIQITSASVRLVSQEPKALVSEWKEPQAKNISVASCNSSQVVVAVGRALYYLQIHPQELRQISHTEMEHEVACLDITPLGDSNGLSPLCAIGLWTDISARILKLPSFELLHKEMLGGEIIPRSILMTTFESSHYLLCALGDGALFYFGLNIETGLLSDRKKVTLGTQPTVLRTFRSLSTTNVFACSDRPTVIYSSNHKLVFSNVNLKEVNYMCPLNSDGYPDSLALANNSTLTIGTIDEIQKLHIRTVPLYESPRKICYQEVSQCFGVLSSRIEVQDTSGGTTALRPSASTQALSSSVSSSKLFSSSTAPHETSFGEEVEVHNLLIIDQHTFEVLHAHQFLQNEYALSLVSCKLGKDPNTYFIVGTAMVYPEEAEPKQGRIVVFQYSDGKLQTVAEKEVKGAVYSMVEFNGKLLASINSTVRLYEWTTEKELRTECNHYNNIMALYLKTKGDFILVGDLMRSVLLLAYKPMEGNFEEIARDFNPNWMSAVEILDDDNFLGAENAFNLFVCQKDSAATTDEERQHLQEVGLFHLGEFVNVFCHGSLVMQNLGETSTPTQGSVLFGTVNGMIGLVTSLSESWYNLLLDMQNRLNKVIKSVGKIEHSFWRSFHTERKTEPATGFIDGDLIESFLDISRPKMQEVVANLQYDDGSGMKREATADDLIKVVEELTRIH
T1 sequence (Q13422 83-213 isoform Q13422-7 limits assumed): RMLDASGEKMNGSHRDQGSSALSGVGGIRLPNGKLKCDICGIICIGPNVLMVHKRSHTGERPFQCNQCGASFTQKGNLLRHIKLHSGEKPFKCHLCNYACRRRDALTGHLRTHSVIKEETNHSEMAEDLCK
T1 sequence (Q96SW2 whole entry partner): as the sequence (Q96SW2 whole entry) above
T1 sequence (Q16531 2-1140 partner limits assumed): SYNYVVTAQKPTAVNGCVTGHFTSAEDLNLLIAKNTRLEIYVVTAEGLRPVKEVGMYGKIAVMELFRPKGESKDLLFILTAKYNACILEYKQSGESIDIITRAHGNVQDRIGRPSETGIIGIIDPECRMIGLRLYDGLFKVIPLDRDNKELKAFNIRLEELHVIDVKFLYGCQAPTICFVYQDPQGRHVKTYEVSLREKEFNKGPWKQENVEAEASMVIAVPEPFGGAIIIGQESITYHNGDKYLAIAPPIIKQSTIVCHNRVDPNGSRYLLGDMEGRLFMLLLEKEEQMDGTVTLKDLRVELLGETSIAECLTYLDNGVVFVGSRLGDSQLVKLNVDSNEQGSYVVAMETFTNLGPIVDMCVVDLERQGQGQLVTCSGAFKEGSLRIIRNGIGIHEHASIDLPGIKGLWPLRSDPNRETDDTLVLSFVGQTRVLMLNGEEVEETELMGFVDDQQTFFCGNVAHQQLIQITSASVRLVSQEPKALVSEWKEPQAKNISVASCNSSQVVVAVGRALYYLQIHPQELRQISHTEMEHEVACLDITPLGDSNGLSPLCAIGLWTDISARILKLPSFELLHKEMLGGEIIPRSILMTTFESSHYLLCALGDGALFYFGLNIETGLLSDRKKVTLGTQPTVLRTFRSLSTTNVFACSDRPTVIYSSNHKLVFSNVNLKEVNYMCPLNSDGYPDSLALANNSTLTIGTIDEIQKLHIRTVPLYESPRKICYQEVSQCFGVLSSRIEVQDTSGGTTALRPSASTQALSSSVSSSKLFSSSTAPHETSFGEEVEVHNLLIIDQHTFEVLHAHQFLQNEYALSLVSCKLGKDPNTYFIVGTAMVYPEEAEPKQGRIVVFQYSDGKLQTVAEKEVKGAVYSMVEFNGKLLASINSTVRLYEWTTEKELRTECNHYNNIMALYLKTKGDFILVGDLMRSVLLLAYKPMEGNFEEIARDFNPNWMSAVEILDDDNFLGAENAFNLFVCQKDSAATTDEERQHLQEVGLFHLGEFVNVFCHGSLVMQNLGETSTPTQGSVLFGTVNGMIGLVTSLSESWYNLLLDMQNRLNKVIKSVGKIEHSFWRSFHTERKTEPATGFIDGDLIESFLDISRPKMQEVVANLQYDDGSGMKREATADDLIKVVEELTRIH
Chain of GSPT1 (P15170 whole entry, the tested form may be a part): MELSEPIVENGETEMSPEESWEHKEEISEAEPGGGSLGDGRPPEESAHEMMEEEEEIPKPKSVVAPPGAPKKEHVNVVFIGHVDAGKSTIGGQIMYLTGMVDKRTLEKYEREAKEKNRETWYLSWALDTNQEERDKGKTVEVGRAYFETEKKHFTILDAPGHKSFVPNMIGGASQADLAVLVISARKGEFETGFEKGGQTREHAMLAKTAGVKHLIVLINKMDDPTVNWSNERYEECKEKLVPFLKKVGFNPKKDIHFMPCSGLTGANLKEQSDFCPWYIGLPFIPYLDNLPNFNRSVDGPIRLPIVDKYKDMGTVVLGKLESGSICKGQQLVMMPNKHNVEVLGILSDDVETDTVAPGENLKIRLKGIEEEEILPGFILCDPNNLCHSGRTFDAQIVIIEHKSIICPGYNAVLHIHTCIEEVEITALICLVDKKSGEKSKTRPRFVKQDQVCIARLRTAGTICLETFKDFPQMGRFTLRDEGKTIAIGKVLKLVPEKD
Chain of GSPT1 (Q96SW2 whole entry, the tested form may be a part): as the sequence (Q96SW2 whole entry) above
Chain of GSPT1 (Q16531 whole entry partner, the tested form may be a part): as the sequence (Q16531 whole entry partner) above
T3 sequence (Q96SW2 whole entry): as the sequence (Q96SW2 whole entry) above
T3 sequence (Q9UKS7 whole entry): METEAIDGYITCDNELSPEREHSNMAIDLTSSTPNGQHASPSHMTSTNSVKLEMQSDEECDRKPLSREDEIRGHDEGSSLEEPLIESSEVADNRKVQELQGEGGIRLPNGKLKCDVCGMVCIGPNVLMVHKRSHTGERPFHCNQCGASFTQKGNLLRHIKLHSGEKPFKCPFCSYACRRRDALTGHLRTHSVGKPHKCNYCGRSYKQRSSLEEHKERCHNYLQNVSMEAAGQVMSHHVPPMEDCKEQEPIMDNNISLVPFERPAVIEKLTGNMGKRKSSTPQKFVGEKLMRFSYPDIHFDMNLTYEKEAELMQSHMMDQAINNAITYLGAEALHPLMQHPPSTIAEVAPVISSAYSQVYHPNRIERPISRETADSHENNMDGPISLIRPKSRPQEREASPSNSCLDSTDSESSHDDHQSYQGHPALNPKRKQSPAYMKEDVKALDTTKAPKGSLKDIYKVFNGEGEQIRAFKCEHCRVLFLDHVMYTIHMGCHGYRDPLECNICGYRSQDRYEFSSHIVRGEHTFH

For `CN(C)C(=O)c1cccc(NC2=CC(=O)N(C3CCC(=O)NC3=O)C2=O)c1` (stereo not drawn) [Compound 33, 3-((1-(2,6-dioxopiperidin-3-yl)-2,5-dioxo-2,5-dihydro-1H-pyrrol-3-yl)amino)-N,N-dimethylbenzamide], the “IKZF1 GFP/RFP Relative Abundance” value worked out at 0.339 in experiment [1] (setting [6]), 0.413 in experiment [1] (setting [7]) and 0.445 in experiment [1] (setting [8]). For the same compound, the figures for the “IKZF2 GFP/RFP Relative Abundance” value in experiment [2] (setting [6]), in experiment [2] (setting [7]) and in experiment [2] (setting [8]) were 0.372, 0.521 and 0.570, respectively. Also, the “SALL4 ZNF1-2 GFP/RFP Relative Abundance” value in experiment [3] (setting [6]) is recorded as 0.783; in experiment [3] (setting [7]) it was 0.813; in experiment [3] (setting [8]), 0.860. Further, the “TR-FRET-IKZF2 (Normalized to CC-885)” value in experiment [4] (setting [9]) stood at 0.584; in experiment [4] (setting [10]), 0.491; in experiment [4] (setting [11]) it was 0.452. Besides, the “GSPT1 GFP/RFP Relative Abundance” value in experiment [5] (setting [6]) is recorded as 0.944; in experiment [5] (setting [7]) it was 0.952; in experiment [5] (setting [8]), 0.956.
Turning to `CN(C)C(=O)c1ccc(NC2=CC(=O)N(C3CCC(=O)NC3=O)C2=O)cc1` (stereo not drawn) [Compound 34, 4-((1-(2,6-dioxopiperidin-3-yl)-2,5-dioxo-2,5-dihydro-1H-pyrrol-3-yl)amino)-N,N-dimethylbenzamide], the “IKZF1 GFP/RFP Relative Abundance” value in experiment [1] (setting [6]) worked out at 1.042; in experiment [1] (setting [7]) it was 0.984; in experiment [1] (setting [8]), 0.904. In addition, the “IKZF2 GFP/RFP Relative Abundance” value in experiment [2] (setting [6]) was 0.981; in experiment [2] (setting [7]), 1.018; in experiment [2] (setting [8]) it was 0.950. The “SALL4 ZNF1-2 GFP/RFP Relative Abundance” value in experiment [3] (setting [6]) is reported as 0.940; in experiment [3] (setting [7]), 0.944; in experiment [3] (setting [8]) it was 0.943. The results for the “TR-FRET-IKZF2 (Normalized to CC-885)” value in experiment [4] (setting [9]), in experiment [4] (setting [10]) and in experiment [4] (setting [11]) were 0.077, 0.064 and 0.059, respectively. Moreover, the results for the “GSPT1 GFP/RFP Relative Abundance” value in experiment [5] (setting [6]), in experiment [5] (setting [7]) and in experiment [5] (setting [8]) were 0.867, 0.821 and 0.878, respectively.
As for `CN(C)C(=O)Cc1cccc(NC2=CC(=O)N(C3CCC(=O)NC3=O)C2=O)c1` (stereo not drawn) [Compound 35, 2-(3-((1-(2,6-dioxopiperidin-3-yl)-2,5-dioxo-2,5-dihydro-1H-pyrrol-3-yl)amino)phenyl)-N,N-dimethylacetamide], the “IKZF1 GFP/RFP Relative Abundance” value amounted to 0.154 in experiment [1] (setting [6]), 0.181 in experiment [1] (setting [7]) and 0.182 in experiment [1] (setting [8]). Further, the results for the “IKZF2 GFP/RFP Relative Abundance” value in experiment [2] (setting [6]), in experiment [2] (setting [7]) and in experiment [2] (setting [8]) were 0.667, 0.709 and 0.806, respectively. Further, the “SALL4 ZNF1-2 GFP/RFP Relative Abundance” value worked out at 0.928 in experiment [3] (setting [6]), 0.903 in experiment [3] (setting [7]) and 0.888 in experiment [3] (setting [8]). Further, the “TR-FRET-IKZF2 (Normalized to CC-885)” value in experiment [4] (setting [9]) was determined as 0.520; in experiment [4] (setting [10]), 0.447; in experiment [4] (setting [11]), 0.402. Moreover, the “GSPT1 GFP/RFP Relative Abundance” value in experiment [5] (setting [6]) was determined as 0.975; in experiment [5] (setting [7]) it was 1.074; in experiment [5] (setting [8]) it was 0.938.
`CN(C)C(=O)Cc1ccc(NC2=CC(=O)N(C3CCC(=O)NC3=O)C2=O)cc1` (stereo not drawn) [Compound 36, 2-(4-((1-(2,6-dioxopiperidin-3-yl)-2,5-dioxo-2,5-dihydro-1H-pyrrol-3-yl)amino)phenyl)-N,N-dimethylacetamide]: the “IKZF1 GFP/RFP Relative Abundance” value is given as 0.687 in experiment [1] (setting [6]), 0.796 in experiment [1] (setting [7]) and 0.860 in experiment [1] (setting [8]). Further, the “IKZF2 GFP/RFP Relative Abundance” value in experiment [2] (setting [6]) turned out to be 0.943; in experiment [2] (setting [7]), 1.027; in experiment [2] (setting [8]), 1.049. The figures for the “SALL4 ZNF1-2 GFP/RFP Relative Abundance” value in experiment [3] (setting [6]), in experiment [3] (setting [7]) and in experiment [3] (setting [8]) were 1.000, 1.033 and 0.974, respectively. In addition, the “TR-FRET-IKZF2 (Normalized to CC-885)” value is 0.183 in experiment [4] (setting [9]), 0.148 in experiment [4] (setting [10]) and 0.115 in experiment [4] (setting [11]). For the same compound, the figures for the “GSPT1 GFP/RFP Relative Abundance” value in experiment [5] (setting [6]), in experiment [5] (setting [7]) and in experiment [5] (setting [8]) were 1.112, 1.009 and 1.006, respectively.
As for `O=C1CCC(N2C(=O)C=C(Nc3ccc4cc[nH]c4c3)C2=O)C(=O)N1` (stereo not drawn) [Compound 37, 3-(3-((1H-indol-6-yl)amino)-2,5-dioxo-2,5-dihydro-1H-pyrrol-1-yl)piperidine-2,6-dione], the “IKZF1 GFP/RFP Relative Abundance” value in experiment [1] (setting [6]) turned out to be 0.315; in experiment [1] (setting [7]), 0.349; in experiment [1] (setting [8]), 0.344. Besides, the entries for the “IKZF2 GFP/RFP Relative Abundance” value in experiment [2] (setting [6]), in experiment [2] (setting [7]) and in experiment [2] (setting [8]) were 0.938, 1.004 and 0.988, respectively. The results for the “SALL4 ZNF1-2 GFP/RFP Relative Abundance” value in experiment [3] (setting [6]), in experiment [3] (setting [7]) and in experiment [3] (setting [8]) were 0.939, 0.865 and 0.891, respectively. Besides, the results for the “TR-FRET-IKZF2 (Normalized to CC-885)” value in experiment [4] (setting [9]), in experiment [4] (setting [10]) and in experiment [4] (setting [11]) were 0.620, 0.422 and 0.355, respectively. Also, the “GSPT1 GFP/RFP Relative Abundance” value in experiment [5] (setting [6]) was determined as 0.787; in experiment [5] (setting [7]), 1.111; in experiment [5] (setting [8]) it was 1.010.
Turning to `O=C1CCC(N2C(=O)C=C(Nc3ccc(-c4ccccc4)cc3)C2=O)C(=O)N1` (stereo not drawn) [Compound 38, 3-(3-([1,1′-biphenyl]-4-ylamino)-2,5-dioxo-2,5-dihydro-1H-pyrrol-1-yl)piperidine-2,6-dione], the “IKZF1 GFP/RFP Relative Abundance” value in experiment [1] (setting [6]) is on record as 0.728; in experiment [1] (setting [7]) it was 0.663; in experiment [1] (setting [8]), 0.621. The “IKZF2 GFP/RFP Relative Abundance” value in experiment [2] (setting [6]) amounted to 0.885; in experiment [2] (setting [7]), 1.002; in experiment [2] (setting [8]), 0.977. For the same compound, the figures for the “SALL4 ZNF1-2 GFP/RFP Relative Abundance” value in experiment [3] (setting [6]), in experiment [3] (setting [7]) and in experiment [3] (setting [8]) were 1.005, 0.887 and 0.742, respectively. In addition, the “TR-FRET-IKZF2 (Normalized to CC-885)” value in experiment [4] (setting [9]) was determined as 0.328; in experiment [4] (setting [10]) it was 0.266; in experiment [4] (setting [11]) it was 0.210. The “GSPT1 GFP/RFP Relative Abundance” value is given as 1.174 in experiment [5] (setting [6]), 1.216 in experiment [5] (setting [7]) and 0.870 in experiment [5] (setting [8]).
